Tests used:
[1] = biological target: mGluR8 (UniProt O00222); assay: pEC50 of agonist-induced pathway activation (ebBRET)
[2] = biological target: HCA3 (UniProt P49019); assay: as above
[3] = biological target: HCA3 (UniProt P49019); assay: Emax (maximal agonist-induced change in ebBRET relative to vehicle) (% of vehicle response (amplitude of change)); higher = larger response (for Gs, larger decrease in membrane ebBRET, i.e. stronger Gs activation)
[4] = biological target: T1, B2 (UniProt P30411); assay: pEC50 of agonist-induced pathway activation (ebBRET)
T1 sequence (whole entry): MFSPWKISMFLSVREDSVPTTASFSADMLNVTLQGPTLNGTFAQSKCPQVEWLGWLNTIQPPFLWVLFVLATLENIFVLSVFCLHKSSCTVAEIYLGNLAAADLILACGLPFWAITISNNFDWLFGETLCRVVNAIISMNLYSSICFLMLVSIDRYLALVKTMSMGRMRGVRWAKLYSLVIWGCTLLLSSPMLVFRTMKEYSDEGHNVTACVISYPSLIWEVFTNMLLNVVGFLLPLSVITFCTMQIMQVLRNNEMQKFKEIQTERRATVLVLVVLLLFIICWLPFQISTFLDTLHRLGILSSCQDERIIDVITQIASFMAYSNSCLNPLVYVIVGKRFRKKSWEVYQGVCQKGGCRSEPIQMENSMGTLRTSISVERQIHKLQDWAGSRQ

[5] = biological target: T2, B1 (UniProt P46663); assay: as above
T2 sequence (whole entry): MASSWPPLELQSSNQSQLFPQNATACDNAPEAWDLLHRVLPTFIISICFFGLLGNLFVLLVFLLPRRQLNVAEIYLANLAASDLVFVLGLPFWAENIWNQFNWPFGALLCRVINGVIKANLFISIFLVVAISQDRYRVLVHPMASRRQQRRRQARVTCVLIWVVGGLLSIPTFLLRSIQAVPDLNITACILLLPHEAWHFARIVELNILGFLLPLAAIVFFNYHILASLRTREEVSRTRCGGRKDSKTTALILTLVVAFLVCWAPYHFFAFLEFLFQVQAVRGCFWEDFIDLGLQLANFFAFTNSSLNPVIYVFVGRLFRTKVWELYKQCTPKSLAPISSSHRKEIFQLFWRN

[6] = biological target: T1, B2; assay: Emax (maximal agonist-induced change in ebBRET relative to vehicle) (% of vehicle response (amplitude of change)); higher = larger response (for Gs, larger decrease in membrane ebBRET, i.e. stronger Gs activation)
[7] = biological target: T2, B1; assay: as above
[8] = biological target: GPR4 (UniProt P46093); assay: pEC50 of agonist-induced pathway activation (ebBRET)
GPR4, sequence (P46093 whole entry, looked up): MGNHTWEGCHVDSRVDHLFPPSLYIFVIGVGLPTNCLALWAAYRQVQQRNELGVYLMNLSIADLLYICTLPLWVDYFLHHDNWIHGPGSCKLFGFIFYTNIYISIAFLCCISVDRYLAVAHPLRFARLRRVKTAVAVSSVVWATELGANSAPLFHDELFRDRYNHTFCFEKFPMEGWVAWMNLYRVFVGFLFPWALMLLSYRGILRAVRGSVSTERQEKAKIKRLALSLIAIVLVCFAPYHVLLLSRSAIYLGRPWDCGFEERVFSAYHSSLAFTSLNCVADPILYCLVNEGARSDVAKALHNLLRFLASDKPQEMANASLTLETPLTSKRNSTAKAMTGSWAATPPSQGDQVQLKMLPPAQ

[9] = biological target: GPR68 (UniProt Q15743); assay: as above
GPR68, sequence (Q15743 whole entry): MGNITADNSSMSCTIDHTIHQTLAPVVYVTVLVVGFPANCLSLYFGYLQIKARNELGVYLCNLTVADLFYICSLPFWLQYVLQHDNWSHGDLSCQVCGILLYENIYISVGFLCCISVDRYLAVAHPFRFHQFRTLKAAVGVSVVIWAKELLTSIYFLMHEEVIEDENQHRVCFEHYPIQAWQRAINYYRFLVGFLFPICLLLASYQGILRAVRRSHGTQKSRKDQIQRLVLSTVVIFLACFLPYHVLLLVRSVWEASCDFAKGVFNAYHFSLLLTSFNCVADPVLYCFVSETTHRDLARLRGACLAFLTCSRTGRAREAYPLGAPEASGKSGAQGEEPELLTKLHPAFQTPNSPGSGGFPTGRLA

[10] = biological target: GPR65 (UniProt Q8IYL9); assay: as above
GPR65, sequence (Q8IYL9 whole entry): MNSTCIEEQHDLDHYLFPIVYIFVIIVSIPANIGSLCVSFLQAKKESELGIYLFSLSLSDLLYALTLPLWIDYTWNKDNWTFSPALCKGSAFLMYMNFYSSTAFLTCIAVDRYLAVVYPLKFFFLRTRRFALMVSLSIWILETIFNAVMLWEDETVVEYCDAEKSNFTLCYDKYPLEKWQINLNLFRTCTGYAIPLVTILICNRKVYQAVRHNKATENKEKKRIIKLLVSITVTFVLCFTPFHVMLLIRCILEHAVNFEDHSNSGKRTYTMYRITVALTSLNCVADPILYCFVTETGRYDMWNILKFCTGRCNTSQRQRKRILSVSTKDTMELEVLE

[11] = biological target: GPR4 (UniProt P46093); assay: Emax (maximal agonist-induced change in ebBRET relative to vehicle) (% of vehicle response (amplitude of change)); higher = larger response (for Gs, larger decrease in membrane ebBRET, i.e. stronger Gs activation)
[12] = biological target: GPR68 (UniProt Q15743); assay: as above
[13] = biological target: GPR65 (UniProt Q8IYL9); assay: as above
[14] = biological target: AMY3; assay: pEC50 of agonist-induced pathway activation (ebBRET)
[15] = system: AMY3; assay: Emax (maximal agonist-induced change in ebBRET relative to vehicle) (% of vehicle response (amplitude of change)); higher = larger response (for Gs, larger decrease in membrane ebBRET, i.e. stronger Gs activation)

HCA3, sequence (P49019 whole entry): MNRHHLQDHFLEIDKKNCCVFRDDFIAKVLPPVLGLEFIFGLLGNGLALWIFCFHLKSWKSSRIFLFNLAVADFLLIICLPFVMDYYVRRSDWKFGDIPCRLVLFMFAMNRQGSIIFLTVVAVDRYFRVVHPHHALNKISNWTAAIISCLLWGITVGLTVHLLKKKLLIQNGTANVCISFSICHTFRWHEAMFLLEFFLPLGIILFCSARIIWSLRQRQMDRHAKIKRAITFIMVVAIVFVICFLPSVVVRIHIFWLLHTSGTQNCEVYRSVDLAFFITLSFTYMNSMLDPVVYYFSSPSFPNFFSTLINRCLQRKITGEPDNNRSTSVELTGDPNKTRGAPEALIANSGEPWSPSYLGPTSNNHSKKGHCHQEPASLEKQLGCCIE
mGluR8, sequence (O00222 whole entry): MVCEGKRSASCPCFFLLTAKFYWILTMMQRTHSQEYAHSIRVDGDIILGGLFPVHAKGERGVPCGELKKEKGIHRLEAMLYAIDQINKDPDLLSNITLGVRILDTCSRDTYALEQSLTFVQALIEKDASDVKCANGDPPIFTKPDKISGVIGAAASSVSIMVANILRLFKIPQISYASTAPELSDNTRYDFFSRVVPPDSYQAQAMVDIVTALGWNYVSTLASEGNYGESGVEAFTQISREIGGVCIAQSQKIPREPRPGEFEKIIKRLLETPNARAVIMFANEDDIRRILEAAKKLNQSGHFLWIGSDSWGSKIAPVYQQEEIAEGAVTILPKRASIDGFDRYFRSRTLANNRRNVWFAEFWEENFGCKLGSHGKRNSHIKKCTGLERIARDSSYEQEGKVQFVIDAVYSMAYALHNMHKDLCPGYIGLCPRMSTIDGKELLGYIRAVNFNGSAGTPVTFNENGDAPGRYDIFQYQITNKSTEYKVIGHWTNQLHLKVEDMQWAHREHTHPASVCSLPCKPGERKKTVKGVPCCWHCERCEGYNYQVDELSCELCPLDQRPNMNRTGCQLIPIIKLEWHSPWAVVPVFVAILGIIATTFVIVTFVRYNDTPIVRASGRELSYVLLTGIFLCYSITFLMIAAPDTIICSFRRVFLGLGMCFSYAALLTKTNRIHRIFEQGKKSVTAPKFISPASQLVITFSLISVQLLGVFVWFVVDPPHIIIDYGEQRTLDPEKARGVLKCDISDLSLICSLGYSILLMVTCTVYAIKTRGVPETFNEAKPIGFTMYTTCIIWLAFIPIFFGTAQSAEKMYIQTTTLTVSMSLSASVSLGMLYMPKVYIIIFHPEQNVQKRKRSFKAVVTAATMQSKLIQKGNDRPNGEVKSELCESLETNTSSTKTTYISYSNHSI

NC(CCC(=O)O)C(=O)O (stereo not drawn) [Glutamate]
[1]
Conditions | pEC50
pathway (G protein / arrestin sensor): Gi1 | 5.6
pathway (G protein / arrestin sensor): Gi2 | 5.52
pathway (G protein / arrestin sensor): GoA | 6.07
pathway (G protein / arrestin sensor): GoB | 5.99
pathway (G protein / arrestin sensor): Gz | 5.49

CCCCCC(O)CC(=O)O (stereo not drawn) [3-HOA]
Conditions | Emax, [3] | pEC50, [2]
pathway (G protein / arrestin sensor): G13 | 97.9 | 4.08
pathway (G protein / arrestin sensor): Gi1 | 415 | 5.63
pathway (G protein / arrestin sensor): Gi2 | 190 | 5.71
pathway (G protein / arrestin sensor): GoA | 187 | 5.5
pathway (G protein / arrestin sensor): GoB | 317 | 5.45
pathway (G protein / arrestin sensor): Gz | 178 | 5.25
pathway (G protein / arrestin sensor): βarr1/GRK2 | 605 | 3.49
pathway (G protein / arrestin sensor): βarr2 | 115 | 3.52
pathway (G protein / arrestin sensor): βarr2/GRK2 | 487 | 3.47

NCCCC[C@H](N)C(=O)N[C@@H](CCCN=C(N)N)C(=O)N1CCC[C@H]1C(=O)N1CCC[C@H]1C(=O)NCC(=O)N[C@@H](Cc1ccccc1)C(=O)N[C@@H](CO)C(=O)N1CCC[C@H]1C(=O)N[C@@H](Cc1ccccc1)C(=O)N[C@@H](CCCN=C(N)N)C(=O)O [Kallidin]
Conditions | Emax, [6] | Emax, [7] | pEC50, [4] | pEC50, [5]
pathway (G protein / arrestin sensor): G11 | 802 | 201 | 9.54 | 6.8
pathway (G protein / arrestin sensor): G12 | 83.2 | – | 10.2 | –
pathway (G protein / arrestin sensor): G13 | 484 | – | 9.16 | –
pathway (G protein / arrestin sensor): G14 | 871 | 162 | 9.54 | 6.88
pathway (G protein / arrestin sensor): G15 | 1050 | 78.9 | 8.75 | 7.54
pathway (G protein / arrestin sensor): Gi1 | 478 | 94.8 | 8.14 | 6.64
pathway (G protein / arrestin sensor): Gi2 | 257 | 65.7 | 7.87 | 6.75
pathway (G protein / arrestin sensor): GoA | 149 | 81.3 | 7.83 | 6.7
pathway (G protein / arrestin sensor): GoB | 360 | 161 | 8.14 | 6.78
pathway (G protein / arrestin sensor): Gq | 576 | 171 | 9.71 | 6.91
pathway (G protein / arrestin sensor): Gz | 204 | 32.3 | 8.65 | 6.93
pathway (G protein / arrestin sensor): βarr1/GRK2 | 1740 | – | 8.62 | –
pathway (G protein / arrestin sensor): βarr2 | 889 | – | 8.54 | –
pathway (G protein / arrestin sensor): βarr2/GRK2 | 1180 | – | 8.52 | –

Cl [pH (proton)]
Conditions | Emax, [11] | Emax, [12] | Emax, [13] | pEC50, [8] | pEC50, [9] | pEC50, [10]
pathway (G protein / arrestin sensor): G11 | 164 | 849 | – | 6.64 | 7.35 | –
pathway (G protein / arrestin sensor): G12 | – | 63.4 | – | – | 7.71 | –
pathway (G protein / arrestin sensor): G13 | – | 65.6 | 117 | – | 8.24 | 7.9
pathway (G protein / arrestin sensor): G14 | 61.3 | 871 | – | 6.26 | 7.2 | –
pathway (G protein / arrestin sensor): G15 | 111 | 446 | – | 6.59 | 6.49 | –
pathway (G protein / arrestin sensor): Gi1 | – | 582 | – | – | 6.56 | –
pathway (G protein / arrestin sensor): Gi2 | – | 454 | – | – | 6.63 | –
pathway (G protein / arrestin sensor): GoA | – | 296 | – | – | 7.17 | –
pathway (G protein / arrestin sensor): GoB | – | 428 | 86.8 | – | 7.41 | 6.3
pathway (G protein / arrestin sensor): Gq | 152 | 749 | – | 6.73 | 7.4 | –
pathway (G protein / arrestin sensor): Gs | 44.2 | 44.9 | 32.3 | 7.91 | 6.51 | 7
pathway (G protein / arrestin sensor): βarr1/GRK2 | 41.4 | 76.2 | 57.6 | – | 6.25 | 5.98
pathway (G protein / arrestin sensor): βarr2 | 173 | 103 | 68.8 | 6.99 | 6 | 6.31
pathway (G protein / arrestin sensor): βarr2/GRK2 | – | 147 | – | – | 6.07 | –

CC[C@H](C)[C@H](NC(=O)[C@H](C)NC(=O)CNC(=O)[C@H](Cc1ccccc1)NC(=O)[C@H](CC(N)=O)NC(=O)[C@H](CC(N)=O)NC(=O)[C@H](CO)NC(=O)[C@H](CO)NC(=O)[C@H](Cc1cnc[nH]1)NC(=O)[C@@H](NC(=O)[C@H](CC(C)C)NC(=O)[C@H](Cc1ccccc1)NC(=O)[C@H](CC(N)=O)NC(=O)[C@H](C)NC(=O)[C@H](CC(C)C)NC(=O)[C@H](CCCNC(=N)N)NC(=O)[C@H](CCC(N)=O)NC(=O)[C@@H](NC(=O)[C@H](C)NC(=O)[C@@H]1CSSC[C@H](NC(=O)[C@@H](N)CCCCN)C(=O)N[C@@H](CC(N)=O)C(=O)N[C@@H]([C@@H](C)O)C(=O)N[C@@H](C)C(=O)N[C@@H]([C@@H](C)O)C(=O)N1)[C@@H](C)O)C(C)C)C(=O)N[C@@H](CC(C)C)C(=O)N[C@@H](CO)C(=O)N[C@@H](CO)C(=O)N[C@H](C(=O)N[C@@H](CC(N)=O)C(=O)N[C@H](C(=O)NCC(=O)N[C@@H](CO)C(=O)N[C@@H](CC(N)=O)C(=O)N[C@H](C(=O)N[C@@H](Cc1ccc(O)cc1)C(N)=O)[C@@H](C)O)C(C)C)[C@@H](C)O [Amylin]
Conditions | Emax, pathway (G protein / arrestin sensor): G12 | Emax, pathway (G protein / arrestin sensor): G13 | Emax, pathway (G protein / arrestin sensor): G15 | Emax, pathway (G protein / arrestin sensor): Gs | pEC50, pathway (G protein / arrestin sensor): G12 | pEC50, pathway (G protein / arrestin sensor): G13 | pEC50, pathway (G protein / arrestin sensor): G15 | pEC50, pathway (G protein / arrestin sensor): Gs
[14] | – | – | – | – | 8.6 | 8.49 | 7.22 | 7.79
[15] | 62.3 | 271 | 122 | 21.4 | – | – | – | –

Reference: the supplement of paper PMC9005190
